Holding throughout (type): functional, cell-based
One test concerns MGC-803. The experiment in a line: Antiproliferative activity against human MGC-803 cells measured after 48 hrs by MTT assay. As to conditions: MGC-803, 48 h. For orientation: Tetrazolium dyes change colour on reduction, which living cells bring about.
For a further test, the system named is MCF7. The test can be described thus: Antiproliferative activity against human MCF7 cells measured after 48 hrs by MTT assay. As to conditions: MCF7, 48 h.
Another test concerns PC-3. The test can be described thus: Antiproliferative activity against human PC-3 cells measured after 48 hrs by MTT assay. As to conditions: PC-3, 48 h.

The source of these data is ChEMBL document CHEMBL4765275, “Discovery of novel tertiary amide derivatives as NEDDylation pathway activators to inhibit the tumor progression in vitro and in vivo” (Eur J Med Chem, 2020).

Molecules are shown by their SMILES. pIC50: −log10 of the molar value. Some results are limits rather than exact numbers.

The pIC50 is the negative decadic logarithm of the IC50, by convention in mol/L. Low values mean a high IC50, high ones a low IC50.

As to `COc1ccc(CN(C(=O)Cc2cccs2)c2cc(OC)c(OC)c(OC)c2)cc1N`, the pIC50 was 7.00 with MGC-803, 5.61 in the test with MCF7 and 5.78 with PC-3.

`COc1ccc(CN(C(=O)COc2ccccc2)c2cc(OC)c(OC)c(OC)c2)cc1`: the pIC50 is 4.64 in the test on MGC-803, 4.19 in the test with MCF7 and 4.71 in the test with PC-3.

As to `COc1ccc(CN(C(=O)Cc2ccccc2)c2cc(OC)c(OC)c(OC)c2)cc1`, the pIC50 in the test with MGC-803 was 5.17; in the test on MCF7, 5.57; in the test on PC-3 it was 6.07.

In the test with MCF7, `COc1ccc(CN(C(=O)CSc2ccccn2)c2cc(OC)c(OC)c(OC)c2)cc1` gave a pIC50 of 4.79.

In the case of `COc1ccc(CN(C(=O)Cc2cccc(OC)c2)c2cc(OC)c(OC)c(OC)c2)cc1`, the pIC50 is 5.97 in the test with MGC-803, 5.88 with MCF7 and 5.52 in the test on PC-3.

For `COc1ccc(CN(C(=O)Cc2cccs2)c2ccc(OC)c(OC)c2)cc1`, the pIC50 in the test on MGC-803, in the test on MCF7 and in the test with PC-3 was under 4.10 throughout.

As for `COc1ccc(CN(C(=O)Cc2ccc(F)cc2)c2cc(OC)c(OC)c(OC)c2)cc1`, the pIC50 in the test on MGC-803 was 5.74; in the test on MCF7, 5.60; in the test on PC-3, 5.62.

With `COc1cc(N(Cc2ccc(F)cc2)C(=O)Cc2cccs2)cc(OC)c1OC`, the pIC50 in the test with MGC-803 is 4.49; in the test with MCF7 it was 4.29; with PC-3, 4.64.

With `COc1ccc(CN(C(=O)COc2ccc(OC)cc2)c2cc(OC)c(OC)c(OC)c2)cc1`, the pIC50 in the test on MGC-803 was 5.20; in the test with MCF7, 4.33; in the test on PC-3, 4.18.

`COc1ccc(CN(C(=O)CSc2nncs2)c2cc(OC)c(OC)c(OC)c2)cc1` gave a negative logarithm of the IC50 (pIC50) in the test on MCF7 of 4.71.

For the compound `COc1ccc(CN(C(=O)Cc2cccs2)c2ccc(OC)cc2)cc1`, the pIC50 in the test with MGC-803, with MCF7 and with PC-3 was under 4.10 in each case.

With `COc1cc(N(Cc2cccc(F)c2)C(=O)Cc2cccs2)cc(OC)c1OC`, the pIC50 in the test with MGC-803 was 4.88; in the test on MCF7, 4.56; in the test with PC-3 it was 4.67.

Turning to `COc1cc(N(Cc2cccc(C)c2)C(=O)Cc2cccs2)cc(OC)c1OC`, the pIC50 was 4.71 in the test on MGC-803, 4.37 with MCF7 and 4.57 with PC-3.

As to `COc1ccc(CC(=O)N(Cc2ccc(OC)cc2)c2cc(OC)c(OC)c(OC)c2)cc1`, the pIC50 in the test on MGC-803 is 5.36; with MCF7, 6.74; in the test with PC-3 it was 5.83.

Take `O=c1[nH]cc(F)c(=O)[nH]1` [FLUOROURACIL]: in the test with PC-3, the pIC50 is 4.76.

In the test with MCF7, `COc1ccc(CN(C(=O)CSc2nnnn2C)c2cc(OC)c(OC)c(OC)c2)cc1` had a pIC50 of 4.84.

As to `COc1ccc(CN(C(=O)Cc2cccs2)c2cc(Cl)c(Cl)cc2Cl)cc1`, the negative logarithm of the IC50 (pIC50) with MGC-803, in the test with MCF7 and with PC-3 was under 4.10 throughout.

With `COc1cc(N(Cc2ccccc2)C(=O)Cc2cccs2)cc(OC)c1OC`, the negative logarithm of the IC50 (pIC50) with MGC-803 was 4.66; with MCF7, 4.31; in the test on PC-3, 4.47.

For the compound `COc1ccc(CN(C(=O)Cc2cccs2)c2ccccc2)cc1`, the pIC50 in the test with MGC-803, with MCF7 and with PC-3 was under 4.10 throughout.

With `COc1ccc(CN(C(=O)COc2cc(OC)c(OC)c(OC)c2)c2cc(OC)c(OC)c(OC)c2)cc1`, the pIC50 was 4.51 in the test with MGC-803, 4.39 in the test on MCF7 and under 4.10 in the test on PC-3.

Consider `COc1ccc(CN(C(=O)COc2cccc(Cl)c2)c2cc(OC)c(OC)c(OC)c2)cc1`, for which the results for the pIC50 in the test with MGC-803, with MCF7 and in the test with PC-3 were 4.16, 4.26 and 4.52, respectively.

Regarding `COc1cc(N(Cc2ccc(Br)cc2)C(=O)Cc2cccs2)cc(OC)c1OC`, the negative-log IC50 (pIC50) was 5.27 in the test with MGC-803, 5.19 with MCF7 and 5.11 in the test with PC-3.

Regarding `COc1cc(N(Cc2cccc(Cl)c2)C(=O)Cc2cccs2)cc(OC)c1OC`, the pIC50 was 4.43 with MGC-803, 4.37 in the test on MCF7 and 4.11 with PC-3.

On to `COc1ccc(CN(C(=O)C(c2ccccc2)c2ccccc2)c2cc(OC)c(OC)c(OC)c2)cc1`, for which the pIC50 in the test on MGC-803, in the test on MCF7 and in the test with PC-3 was under 4.10 each time.

As for `COc1cc(N(Cc2ccc(Cl)cc2)C(=O)Cc2cccs2)cc(OC)c1OC`, the pIC50 with MGC-803 was 4.85; in the test with MCF7, 5.06; in the test on PC-3, 4.71.

In the test with MCF7, `COc1ccc(CN(C(=O)CSc2nc3ccccc3o2)c2cc(OC)c(OC)c(OC)c2)cc1` showed a pIC50 of 5.18.

Consider `COc1ccc(CN(C(=O)Cc2ccc(C)cc2C)c2cc(OC)c(OC)c(OC)c2)cc1`, for which the pIC50 is 4.54 in the test with MGC-803, 4.16 in the test with MCF7 and 4.28 in the test with PC-3.

`COc1cc(N(Cc2ccc(C(C)(C)C)cc2)C(=O)Cc2cccs2)cc(OC)c1OC`: the negative-log IC50 (pIC50) is 4.64 in the test on MGC-803, 4.71 in the test on MCF7 and 4.86 with PC-3.

For `COc1cc(N(Cc2ccc(C)cc2)C(=O)Cc2cccs2)cc(OC)c1OC`, the pIC50 in the test with MGC-803 is 6.08; with MCF7, 5.81; with PC-3, 4.77.
